The record followed here is US8044201B2, “Stem cell cultures” (The Scripps Research Institute, priority 2008, dated 2011).

Assay [1] relates to β1 integrin. The experiment in a line: Active conformation of β1 integrin in hESCs (HUTS-21 binding, flow cytometry and immunostaining). Type of assay: cell-based, human. The note with it: for level of HUTS-21 binding (activated β1 integrin): trypsin-dissociated hESCs. From the text: To gain insights into the mechanism of β1 integrin regulation by Tzv and Ptn, we investigated whether the compounds' effect is due to changes of integrin expression. In contrast to E-cadherin, β1 integrin was not cleaved by trypsin. […] Thus, Tzv and Ptn are likely to affect cell adhesion by modulating integrin activity (FIGS. 3d,e). To examine the effects of compound treatment on the activity of β1 integrin, we used the monoclonal antibody HUTS-21, which specifically binds to the activated form of the β1 integrin (Luque, A. et al., J Biol Chem 271 (19):11067-11075 (1996)).
(§1) To assess the expression of E-cadherin, activated integrin and SSEA4, dissociated cells (3×10^5) were washed with PBS and resuspended in PBS containing 2% goat serum. Cells were then incubated with the appropriate antibody for 1 h at 4° C., washed with the blocking solution, and labeled with FITC-conjugated secondary antibody for 30 min at 4° C. Cells were then washed and analyzed on a FACS Calibur flow cytometer.
In general terms: Flow cytometry measures light scatter and fluorescence of single cells or particles in a stream.

Assay [2] deals with mouse P1 cortical explants. The experiment in a line: Neurite / axon outgrowth from cortical explants. It counts as cell-based. As to the method:
Compounds of formula I and III (i.e., Tvz and Ptn) are effective at promoting axonal regeneration and functional recovery in injured central nervous system. […] Tzv (3 μM) was tested on mouse P1 cortical explants, with axon outgrowth as an outcome read-out. Tzv was added to the medium 20 minutes after plating, with DMSO as a control. […] Accordingly, in some embodiments, a compound of the present invention is administered to an individual having a central nervous system injury or who is in need or would otherwise benefit from axonal regeneration.

Assay [3] deals with hESCs. Kind of assay: Long-term serial passage of hESCs in Tzv or Ptn-containing chemically-defined medium (morphology, pluripotency markers, karyotype). Type of assay: cell-based, human. The note with it: serially passaged for more than 20 generations in compound-containing chemically-defined medium. Here is the method: (§2) Human ESC lines H1, HUES7 and HUES9 were cultured on irradiated MEF feeder cells in DMEM-F12 supplemented with 2 mM L-glutamine, 1× nonessential amino acids, 20% serum replacement (Invitrogen) and 10 ng/ml basic Fibroblast growth factor (Invitrogen). Chemically-defined and feeder-free hESC culture was described previously (Yao, S. et al., Proc Natl Acad Sci USA 103 (18):6907-6912 (2006)). Briefly, hESCs were grown on Matrigel-coated tissue culture plates in N2B27-CDM (DMEM-F12 supplemented with 1× N2 supplements, 1× B27 supplements, 2 mM L-glutamine, 0.11 mM 2-mercaptoethanol, 1× nonessential amino acids, and 0.5 mg/ml BSA (fraction V)) and 20 ng/ml bFGF. Human ESCs were passaged every 5-6 days with 0.05% trypsin.
Immunostaining was performed as described previously (Yao, S. et al., Proc Natl Acad Sci USA 103 (18):6907-6912 (2006)). Briefly, cells were fixed with 4% paraformaldehyde at room temperature (RT) for 15 min. The cells were then incubated at RT in blocking buffer for 1 hour. […]
Teratoma formation experiments were performed by injecting 3-5 million hESCs (maintained in the presence of compounds Tvz or Ptn) under the kidney capsule of nude mice. After 4-5 weeks, all mice developed teratomas, which were removed and then immunohistologically analyzed by The Scripps Research Institute Research Histology Service and Animal Resources. […]

Assay [4] relates to E-cadherin. The experiment in a line: E-cadherin level in hESCs after trypsin dissociation (Western blot, flow cytometry, semiquantitative RT-PCR). Type of assay: cell-based, human. Here is the method:
as §1
A general note: Immunoblotting shows a protein as a band on a membrane.

Assay [5] deals with human embryonic stem cell, mouse embryonic stem cell, multiple neural stem cells, skin stem cells, mesenchymal stem cells, hematopoietic stem cells, stromal …. The experiment in a line: Survival and anti-differentiation of stem cells ex vivo after isolation. Type of assay: cell-based. The note with it: contacted immediately after isolation of the cells. An excerpt:
In some embodiments, the invention provides methods of promoting survival and anti-differentiation in stem cells ex-vivo.

Assay [6] relates to E-cadherins to EGFR1 and ERB2. Kind of assay: Immunoprecipitation of E-cadherins with EGFR1 and ERB2 in hESCs. Type of assay: cell-based, human. From the text:
ALP detection kit and integrin antibodies were from Chemicon. AG825 (Erb2 inhibitor), AG1478 (EGFR inhibitor), PPP (IGFR1 inhibitor) were purchased from Calbiochem. Antibodies raised against the intracytoplasmic tail of E-cadherins (Transduction Laboratories, Lexington, Ky.) were used for immunoprecipitation. The antibody TS2/16 was from Pierce. Antibodies to the extracellular domain of E-cadherin molecule were from Zymed (Carlsbad). Antibodies against extracellular signal-regulated kinase/MAPK, EGFR1, ERB2, GADPH and phosphorylated form of AKT were from Cell Signaling. Mouse monoclonal anti-phosphotyrosine (4G-10 clone) was from Upstate Biotechnology. Ptn and Tzv were added to culture medium at 2 μM.

For assay [7], the system named is epithelial to mesenchymal transition/EMT. Kind of assay: Epithelial to mesenchymal transition (EMT) / MET. Type of assay: cell-based.
Assay [8] concerns hESCs. The experiment in a line: Cell death / survival analysis of dissociated hESCs in adherent (Matrigel) or suspension culture. Type of assay: cell-based, human. The conditions noted are these: for survival of dissociated hESCs in adherent culture: Matrigel-coated plate; for survival of dissociated hESCs in adherent culture / survival of dissociated hESCs in suspension culture: 2 μM. Here is the method:
as §2
The hESCs under different treatments were dissociated by trypsin and fixed by 4% paraformaldehyde. And the staining was carried out according to the manufacturer's instructions (MBL Laboratories, Watertown, Mass.). After staining, samples were analysed by flow cytometry using a FACS Calibur flow cytometer (BD).

Assay [9] relates to primary human pancreatic islets/beta cells. The experiment in a line: Cell death of dispersed primary pancreatic islets/beta cells plated as single cells on matrigel or laminin. Type of assay: cell-based. The note with it: 1-2 mM added to the media. Here is the method:
For example, the inventors dispersed primary human pancreatic islets/beta cells plated as single cells onto a tissue culture plate that was coated with matrigel or laminin. […] Accordingly, in some embodiments, a compound of the present invention is administered to an individual in need of pancreatic beta and/or islet cells, wherein administration of the compound results in an increase in the number of beta or islet cells in the individual.

The test system of assay [10] is hESCs. The experiment in a line: Cell adhesion assay of dissociated hESCs. It counts as cell-based, human. Here is the method:
Cell adhesion assays were performed in 96-well microtiter plates coated with Matrigel. After trypsin, hESCs were resuspended in the chemically-defined media containing the desired compounds. Cells were then added to the microtiter wells and incubated for 3 h at 37° C. Unbound and loosely bound cells were removed by shaking and washing, and the remaining cells were then fixed immediately. The wells were washed 3 times with 200 μl of H2O, and attached cells were stained with Crystal Violet (Sigma). The absorbance of each well at 570 nm was then measured. For experiments with blocking antibodies, cells were pre-incubated with antibodies on ice for 30 min, and adhesion assays were performed in the presence of antibodies. Each sample was assayed independently for three times.

The test system of assay [11] is growth factor receptor. Kind of assay: Western blot of growth factor receptor phosphorylation in hESCs. Type of assay: cell-based, human. The conditions noted are these: hESCs treated for 2 h, DMSO control.
The test system of assay [12] is ERK and AKT. Kind of assay: Western blot of ERK and AKT phosphorylation in dissociated hESCs. Type of assay: cell-based, human.
Assay [13] deals with hESCs. Kind of assay: ALP positive colony formation by dissociated hESCs (clonal / low-density survival assay). The note with it: PKC agonist treatment. It counts as cell-based, human. As to the method:
as §2
For clonal survival assays, single hESCs were diluted to clonal density and plated onto 96-well Matrigel-coated plate. For low-density survival assays, 500 cells were plated onto 96-well Matrigel-coated plate. To visualize hESC colonies, cultures were fixed in 4% paraformaldehyde in PBS for 5 min, washed once in PBS, then stained for alkaline phosphatase activity as described in manufacturer's instructions. ALP positive colonies were counted on an inverted microscope.

“Also recorded” adds a separate entry of the source.

Turning to `O=C(NCc1ccccc1)c1csc(Nc2ccncn2)n1` [Tzv, N-benzyl-2-(pyrimidin-4-ylamino)thiazole-4-carboxamide], in assay [1], the “level of HUTS-21 binding (activated β1 integrin)” value is “increased”. Further, the axon outgrowth entry in assay [2] (3 μM, added 20 minutes after plating, observed 4 days, DMSO control) is reported as “dramatic effect in promoting axon outgrowth”. Besides, the “neurite outgrowth from primary neuronal cells” value in assay [2] (primary neuronal cells from mice) was “promote neurite outgrowth”. In [3], the “maintenance of hESC morphology, pluripotency markers and karyotype” value was “maintained the characteristic morphology of hESCs, the expression of typical pluripotency markers, and normal karyotype”. Besides, in [4] (hESCs after trypsin dissociation), the “full-length E-cadherin expression (Western blot)” value is listed as “significantly increased”. Also, the “cell surface E-cadherins (flow cytometry)” value in [4] (hESCs after trypsin treatment) is “significantly increased”. Further, the “E-cadherin transcripts (semiquantitative RT-PCR)” value in assay [4] (vs mock controls) is recorded as “comparable amounts”. Moreover, the “survival and anti-differentiation of stem cells” value in [5] is “effective in promoting survival and anti-differentiation”. Further, the “binding of E-cadherins to EGFR1 and ERB2” value in [6] is on record as “induced binding”. For the same molecule, the “induction of MET and inhibition of EMT” value in [7] is “induce MET (the reverse of EMT) and inhibit EMT”. In [8], the “survival of dissociated hESCs in adherent culture” value is on record as “greatly improved survival; also recorded: dramatic effect on survival” and the “survival of dissociated hESCs in suspension culture” value is “greatly improved survival”. In addition, in assay [8] (hESCs grown in suspension), the “cell aggregate formation in suspension” value is on record as “formed nice cell aggregates”. Also, in [9], the “cell death of pancreatic islets/beta cells” value was “cell death was inhibited”. For the same molecule, in assay [10], the “adhesion of dissociated hESCs to Matrigel or laminin” value is “dramatically increased adhesion” and the “adhesion of hESCs to gelatin or poly-lysine” value is listed as “not affected”.
With `CN(C)CCCn1cc(C2=C(c3c[nH]c4ccccc34)C(=O)NC2=O)c2ccccc21` [bisindolylmaleimide I, reference compound], the “effect on increased cell adhesion induced by Ptn” value in assay [10] (in combination with Ptn) is “antagonize”. For the same molecule, in assay [10] (in combination with Tzv), the “effect on cell adhesion induced by Tzv” value is “no effect”.
Regarding `O=S(=O)(NCC1CC1)c1ccc(Nc2nccc(N3CCCc4cc(O)ccc43)n2)cc1` [Ptn, N-(cyclopropylmethyl)-4-(4-(6-hydroxy-3,4-dihydroquinolin-1(2H)-yl)pyrimidin-2-ylamino)benzenesulfonamide], the “level of HUTS-21 binding (activated β1 integrin)” value in assay [1] is listed as “increased”. Moreover, the “maintenance of hESC morphology, pluripotency markers and karyotype” value in assay [3] was “maintained the characteristic morphology of hESCs, the expression of typical pluripotency markers, and normal karyotype”. For the same molecule, in [5], the “survival and anti-differentiation of stem cells” value is “effective in promoting survival and anti-differentiation”. Moreover, in assay [7], the “induction of MET and inhibition of EMT” value was “induce MET (the reverse of EMT) and inhibit EMT”. In assay [8], the “survival of dissociated hESCs in adherent culture” value is reported as “promoted survival; also recorded: dramatic effect on survival” and the “survival of dissociated hESCs in suspension culture” value is recorded as “no effect”. Besides, the “phosphorylation of growth factor receptor” value in [11] is listed as “significantly increased”. In assay [10], the “adhesion of dissociated hESCs to Matrigel or laminin” value was “dramatically increased adhesion” and the “adhesion of hESCs to gelatin or poly-lysine” value is given as “not affected”. Also, the “phosphorylation of ERK and AKT” value in [12] was “increased”.
Turning to `CCCCCCCCCCCCCC(=O)O[C@@H]1[C@@H](C)[C@@]2(O)[C@@H](C=C(CO)C[C@]3(O)C(=O)C(C)=C[C@@H]23)[C@@H]2C(C)(C)[C@]12OC(C)=O` [PMA, phorbol 12-myristate 13-acetate, reference compound], the integrin activation entry in assay [1] (dissociated hESCs, PMA 10 nM (FIG. 3k)) is listed as “integrin activation”. The “colony formation of dissociated hESCs” value in assay [13] was “substantial increase”. In assay [10] (PKC agonist treatment), the “cell adhesion of dissociated hESCs” value is “substantial increase”.
